# Reference: PubChem BioAssay (NCI)
# Values joined by “and” are separate entries in the source; they are usually repeats but may differ in a detail not shown here. Identical values can stand only once.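 Cells were grown in 96-well plates and exposed to each compound for 48 hours at five concentrations; endpoints were interpolated linearly between bracketing concentrations, or set to the highest concentration if not reached. The concentration for 50% growth inhibition is given as GI50. Definition used: TGI = concentration required for complete inhibition of growth.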
# Key:
# Assay in all cases: NCI tumour cell line growth inhibition, 48 h
# CCRF-CEM leukemia = test system: CCRF-CEM leukemia
# HS 578T breast = test system: HS 578T breast
# K-562 leukemia = test system: K-562 leukemia
# LOX IMVI melanoma = test system: LOX IMVI melanoma
# MDA-MB-231 breast = test system: MDA-MB-231 breast
# NCI-H226 lung = test system: NCI-H226 lung
# SF-295 CNS = test system: SF-295 CNS
# SNB-75 CNS = test system: SNB-75 CNS
# U251 CNS = test system: U251 CNS
# UACC-257 melanoma = test system: UACC-257 melanoma
SMILES,GI50 (CCRF-CEM leukemia),TGI (CCRF-CEM leukemia),GI50 (HS 578T breast),TGI (HS 578T breast),GI50 (K-562 leukemia),TGI (K-562 leukemia),GI50 (LOX IMVI melanoma),TGI (LOX IMVI melanoma),GI50 (MDA-MB-231 breast),TGI (MDA-MB-231 breast),GI50 (NCI-H226 lung),TGI (NCI-H226 lung),GI50 (SF-295 CNS),TGI (SF-295 CNS),GI50 (SNB-75 CNS),TGI (SNB-75 CNS),GI50 (U251 CNS),TGI (U251 CNS),GI50 (UACC-257 melanoma),TGI (UACC-257 melanoma)
COc1cc(-c2nc3ccccc3s2)ccc1NC(=O)COc1ccc(Cl)cc1,> 100 µM,> 100 µM,3.73 µM,> 100 µM,5.35 µM,> 100 µM,4.69 µM,> 100 µM,4.98 µM,> 100 µM,4.31 µM,59.2 µM,3.35 µM,25.1 µM,42.9 µM,> 100 µM,2.23 µM,6.8 µM,13.5 µM,> 100 µM
Cn1cc(C2=C(c3cn(C)c4c([N+](=O)[O-])cccc34)C(=O)NC2=O)c2ccccc21,> 25 µM,> 25 µM,> 25 µM,> 25 µM,> 25 µM,> 25 µM,> 25 µM,> 25 µM,> 25 µM,> 25 µM,> 25 µM,> 25 µM,> 25 µM,> 25 µM,> 25 µM,> 25 µM,> 25 µM,> 25 µM,> 25 µM,> 25 µM
N#Cc1ccccc1NC(=O)C(=O)c1c(O)c2ccccc2oc1=O,,> 100 µM,,> 100 µM,,> 100 µM,,> 100 µM,,> 100 µM,,> 100 µM,,> 100 µM,,> 100 µM,,> 100 µM,,> 100 µM
COc1ccc(C(=O)COC(=O)[C@H](C[Se][Se]C[C@H](NC(=O)c2ccc(Br)cc2F)C(=O)OCC(=O)c2ccc(OC)cc2)NC(=O)c2ccc(Br)cc2F)cc1,2.5 µM,11.6 µM,0.362 µM,0.966 µM,3.3 µM,> 55 µM,0.914 µM,2.32 µM,0.846 µM,2.77 µM,0.581 µM,2.07 µM,0.211 µM,0.61 µM,0.347 µM,1.26 µM,0.312 µM,1.07 µM,2.25 µM,5.31 µM
COC1CCN(C(=O)c2cc(Cc3n[nH]c(=O)c4ccccc34)ccc2F)CC1,43.9 µM,> 100 µM,> 64.5 µM,> 100 µM,> 89.1 µM,> 100 µM,58.5 µM,> 100 µM,> 100 µM,> 100 µM,89.2 µM,> 100 µM,24.2 µM,> 100 µM,9.12 µM,> 100 µM,> 55.3 µM,> 100 µM,> 83.2 µM,> 100 µM
CC(=O)c1cc(C(=O)c2ccc3c(c2)Sc2ccccc2N3)c2c(C)cc(C)cn12,0.277 µM,> 100 µM,0.343 µM,> 36 µM,0.222 µM,> 100 µM,0.73 µM,> 100 µM,0.458 µM,8.95 µM,0.73 µM,> 100 µM,0.187 µM,0.94 µM,0.171 µM,1.5 µM,0.396 µM,> 100 µM,2.04 µM,> 100 µM
CN(C)CCNC(=O)C(C)(C)Oc1ccc(C(=O)c2ccc(Cl)cc2)cc1Cl,5.31 µM,> 77.3 µM,,23 µM,2.42 µM,9.19 µM and > 39 µM,0.0392 µM,20.1 µM,2.25 µM,4.93 µM and 23.6 µM,,29 µM,4.74 µM,22.6 µM,9.71 µM,24.8 µM,,20 µM,3.11 µM,7.79 µM and 4.84 µM
C=CC(=O)NCc1cccc(Nc2ncc(Br)c(NCCCNC(=O)C3CCC3)n2)c1,0.707 µM and 0.454 µM,12.5 µM and > 25 µM,0.295 µM and 0.539 µM,1.53 µM and 1.86 µM,2.99 µM and 0.937 µM,12.5 µM and > 25 µM,0.337 µM and 0.246 µM,4.21 µM and 4.58 µM,0.567 µM and 0.463 µM,11.6 µM and 1.8 µM,0.999 µM and 0.448 µM,7.85 µM and 11.8 µM,1.1 µM and 1.32 µM,8.36 µM and 16.8 µM,0.113 µM and 0.0839 µM,0.637 µM and 1.02 µM,0.665 µM and 0.591 µM,12.5 µM and 5.94 µM,2.57 µM and 3.46 µM,12.5 µM and 20.6 µM
O=C1Nc2c(C(F)(F)F)cccc2[C@@]1(c1ccc(O)cc1)c1ccc(OC(F)(F)F)cc1,14.5 µM,45.9 µM,< 0.01 µM,< 0.01 µM,0.183 µM,20.7 µM,< 0.01 µM,< 0.0137 µM,0.222 µM,18.2 µM,0.0108 µM,0.0273 µM,0.0193 µM,0.0469 µM,< 0.01 µM,< 0.0147 µM,0.319 µM,20.1 µM,0.938 µM,20.1 µM
CC(C)(C)C(=O)OCOP(=O)(OCOC(=O)C(C)(C)C)C1CC(O)N(O)C1=O (stereo not drawn),0.777 µM,14.3 µM,2.59 µM,7.85 µM,3.66 µM,> 100 µM,3.35 µM,> 100 µM,3.65 µM,40.9 µM,33.5 µM,> 100 µM,15.7 µM,> 100 µM,19.2 µM,> 100 µM,3.58 µM,44.1 µM,> 100 µM,> 100 µM
COC(=O)[C@]12CC[C@@H](C)[C@H](C)[C@@H]1C1=CC[C@@H]3[C@@]4(C)C(C=O)=C[C@@](C)(COC(C)=O)C4=CC[C@@]3(C)[C@]1(C)CC2,1.95 µM,7.82 µM,5.07 µM,30.3 µM,4.1 µM,15.3 µM,3.3 µM,12.7 µM,5.74 µM,23.5 µM,6.28 µM,22.8 µM,2.98 µM,11.9 µM,2.91 µM,19.2 µM,3.37 µM,13.9 µM,4.19 µM,17.2 µM
O=C1C(=O)c2c(nc3ccc(Br)cn23)-c2ccccc21,1.25 µM,5.18 µM,0.438 µM,2.23 µM,0.244 µM,1.04 µM,0.242 µM,0.689 µM,0.465 µM,2.86 µM,1.61 µM,3.41 µM,1.61 µM,3.02 µM,0.738 µM,2.37 µM,0.588 µM,1.87 µM,0.747 µM,2.09 µM
Cc1cc(O)ccc1C1=NN(c2ccc(S(C)(=O)=O)cc2)C(=O)CC1,9.09 µM,> 100 µM,4.15 µM,> 100 µM,3.74 µM,> 100 µM,7.25 µM,> 100 µM,17.1 µM,> 100 µM,> 100 µM,> 100 µM,2.87 µM,12.4 µM,5.53 µM,75.2 µM,4.3 µM,> 100 µM,5.65 µM,> 100 µM
Clc1ccc2c(c1)N(CCCN1CCCC1)c1ccccc1S2,3.93 µM,14.2 µM,4.92 µM,30.8 µM,2.77 µM,7.61 µM,2.5 µM,7.14 µM,3.42 µM,12.8 µM,19.4 µM,48.3 µM,6.83 µM,21.6 µM,3.4 µM,16.4 µM,6.96 µM,20.5 µM,11.4 µM,23.8 µM
NC(=O)c1ccc(NN=O)nc1,,> 100 µM,,> 100 µM,,> 100 µM,> 100 µM,> 100 µM,,> 100 µM,,> 100 µM,,> 100 µM,,> 100 µM,,> 100 µM,,> 100 µM
CC1COc2c(N3CCN(C)CC3)c(F)cc3c(=O)c(C(=O)O)cn1c23 (stereo not drawn),> 100 µM,> 100 µM,> 100 µM,> 100 µM,96.8 µM,> 100 µM,> 100 µM,> 100 µM,81.7 µM,> 100 µM,93.1 µM,> 100 µM,> 100 µM,> 100 µM,> 100 µM,> 100 µM,> 100 µM,> 100 µM,> 100 µM,> 100 µM
CS(=O)(=O)Nc1ccc(-c2cc(-c3ccccc3)cc(C(N)=O)c2N)cc1,17.8 µM,> 25 µM,> 22.4 µM,> 25 µM,15.8 µM,> 25 µM,> 25 µM,> 25 µM,> 25 µM,> 25 µM,> 25 µM,> 25 µM,24.6 µM,> 25 µM,8.89 µM,> 25 µM,> 25 µM,> 25 µM,> 25 µM,> 25 µM
N/N=C(\C(=O)Nc1ccc(Cl)cc1Cl)C(c1cnc2ccccc2n1)[N+](=O)[O-] (stereo not drawn),,> 100 µM,,> 100 µM,,> 100 µM,,> 100 µM,,> 100 µM,,> 100 µM,,> 100 µM,,> 100 µM,,> 100 µM,,> 100 µM
C[C@H](Nc1ncnc2nc[nH]c12)c1cc2ccc(F)cc2nc1-c1ccccn1,> 70.2 µM,> 100 µM,18.7 µM,> 100 µM,> 100 µM,> 100 µM,> 86.2 µM,> 100 µM,> 80 µM,> 100 µM,> 89.4 µM,> 100 µM,18.8 µM,> 100 µM,2.68 µM,60.5 µM,> 100 µM,> 100 µM,> 100 µM,> 100 µM
